Type in all cases: cell-based
For assay [1], the target named is T1, EGFR del (PC9) (Homo sapiens, UniProt P00533, DEL746-750).
T1 construct: detects endogenous levels of phospho-EGF Receptor (Tyr1068) protein; host or cells: PC9
Put plainly: pEGFR Y1068 ELISA assay, PC9 cells. The note with it: inhibition of phosphorylation of EGFR at Tyr1068; PC9 NSCLC cells; 2 hr compound incubation. A general note: In an ELISA, binding on a coated surface is turned into a signal by an enzyme label.
Protocol: (§1) The PathScan® Phospho-EGF Receptor (Tyr1068) Sandwich ELISA Kit is a solid phase sandwich enzyme-linked immunosorbent assay (ELISA) that detects endogenous levels of phospho-EGF Receptor (Tyr1068) protein. […] NCI-H3255 cells were licensed from NCI. […] All cells were cultured according to ATCC recommendations. A549, NCI-H1975, PC9, and NCI-H3255 cells were grown in RPMI media (Invitrogen, Carlsbad, Calif.) supplemented with 10% FBS (Sigma, St Louis, Mo.), and with 1% Penn/Strep (Invitrogen).
(§2) Each compound was prepared as a DMSO stock solution (10 mM). Compounds were tested in duplicate on each plate, with an 11-point serial dilution curve (1:3 dilution). Compound treatment (50 μL) was added from the compound dilution plate to the cell plate. […] Plates were then incubated for 2 hr at 37° C., 5% CO2. […] The wash was then flicked off and ice-cold lysis buffer was added to the cells (50 μL/well). The plate was shaken for 20-30 min at 4° C. to completely lyse the cells. Sample diluent (50 μL/well) was added to the ELISA plate, and the lysate (50 μL) was diluted into the sample diluent in each well of the ELISA plate. Plates were sealed and incubated overnight at 4° C. with shaking. The next day, wells were washed four times with 1× Wash Buffer; plates were taped on lint-free paper after the final wash prior to adding Add Detection Antibody (green, 100 μL/well) to each well and incubating for 1 hr at 37° C. After incubation, wells were washed as described. HRP-Linked secondary antibody (red, 100 μL/well) was added to each well and incubated for 30 min at 37° C. After incubation, the wells were washed as described. TMB Substrate (100 μL/well) was added to each well and the plate incubated for 10 min at 37° C. or 30 min at rt maximum. Stop Solution (100 μL/well) was added to each well at the end of the incubation and plates were shaken gently for a few seconds. […] Data were analyzed using a four-parameter fit in Microsoft Excel.

In assay [2] the target is T2, EGFR L858R+T790M, endogenous (NCI-H1975) (Homo sapiens, UniProt P00533, L858R/T790M).
T2 construct: NCI-H1975 (EGFR L858R+T790M, endogenous); host or cells: NCI-H1975
Put plainly: pEGFR Y1068 ELISA assay, NCI-H1975 cells. The note with it: inhibition of phosphorylation of EGFR at Tyr1068; NCI-H1975 NSCLC cells; 2 hr compound incubation.

For assay [3], the target named is T3, EGFR wildtype, endogenous (A549) (Homo sapiens, UniProt P00533).
T3 construct: A549 (EGFR wildtype, endogenous); host or cells: A549 (stimulated with EGF)
In words: pEGFR Y1068 ELISA assay, A549 cells. The note with it: inhibition of phosphorylation of EGFR at Tyr1068; A549 NSCLC cells; 2 hr compound incubation, then stimulated 10 min with EGF (40 ng/mL).
Protocol: Phosphorylation of EGFR at Y1068 was measured by PathScan® Phospho-EGF Receptor (Try1068) Sandwich ELISA kit (#7240, Cell Signaling Technology®, Danvers, Mass.). The PathScan® Phospho-EGF Receptor (Tyr1068) Sandwich ELISA Kit is a solid phase sandwich enzyme-linked immunosorbent assay (ELISA) that detects endogenous levels of phospho-EGF Receptor (Tyr1068) protein. […] All cells were cultured according to ATCC recommendations. A549, NCI-H1975, PC9, and NCI-H3255 cells were grown in RPMI media (Invitrogen, Carlsbad, Calif.) supplemented with 10% FBS (Sigma, St Louis, Mo.), and with 1% Penn/Strep (Invitrogen). PC9-DRH cells were grown in RPMI with 10% FBS and 1 μM dacomitinib.
Cells were plated at 40,000/well in complete culture media (50 μL/well) on the bottom of clear tissue culture treated microtiter plates (#3595, Corning Inc, Corning, N.Y.) and allowed to adhere overnight at 37° C., 5% CO2. The following day, compound dilution plates were prepared in 96 well clear V-bottom 0.5 mL polypropylene block plates (#3956, Corning, Inc). Each compound was prepared as a DMSO stock solution (10 mM). Compounds were tested in duplicate on each plate, with an 11-point serial dilution curve (1:3 dilution). Compound treatment (50 μL) was added from the compound dilution plate to the cell plate. […] Plates were then incubated for 2 hr at 37° C., 5% CO2. For A549 (EGFR wildtype) assay, cells were plated in full-serum (10%) media for 24 hr prior to compound treatment; cells were treated in full serum media as described and then stimulated for 10 min with EGF (40 ng/mL/starvation media, Invitrogen). Immediately prior to the end of the incubation, ice-cold lysis buffer was prepared (1× Cell Lysis Buffer (#9803, Cell Signaling Technology), 1 mM sodium orthovanadate (Na3VO4, #96508, Sigma), 1 mM phenylmethanesulfonyl fluoride (PMSF, 52332, CalBiochem/EMD Chemicals), complete Mini EDTA-free Protease Inhibitor Cocktail Tablet (1 tablet/10 mL, #11836170001, Roche, Indianapolis, Ind.), and PhosSTOP Phosphatase Inhibitor Cocktail Tablet (1 tablet/10 mL, #04906837001, Roche) in pure water. At the end of 2 hr, media was flicked off and cells were washed once with ice-cold 1 mM Na3VO4 in PBS (100 μL/well, Invitrogen). The wash was then flicked off and ice-cold lysis buffer was added to the cells (50 μL/well). The plate was shaken for 20-30 min at 4° C. to completely lyse the cells. Sample diluent (50 μL/well) was added to the ELISA plate, and the lysate (50 μL) was diluted into the sample diluent in each well of the ELISA plate. Plates were sealed and incubated overnight at 4° C. with shaking. The next day, wells were washed four times with 1× Wash Buffer; plates were taped on lint-free paper after the final wash prior to adding Add Detection Antibody (green, 100 μL/well) to each well and incubating for 1 hr at 37° C. After incubation, wells were washed as described. HRP-Linked secondary antibody (red, 100 μL/well) was added to each well and incubated for 30 min at 37° C. After incubation, the wells were washed as described. TMB Substrate (100 μL/well) was added to each well and the plate incubated for 10 min at 37° C. or 30 min at rt maximum. Stop Solution (100 μL/well) was added to each well at the end of the incubation and plates were shaken gently for a few seconds. Absorbance was read at 450 nm within 30 min after addition of Stop Solution on a PerkinElmer EnVision Excite Multilabel Reader Method for Absorbance or on a Molecular Devices SpectraMax^384 Reader for absorbance. Data were analyzed using a four-parameter fit in Microsoft Excel.

Assay [4] concerns the target T4, EGFR del/T790M (PC9-DRH) (Homo sapiens, UniProt P00533, DEL746-750/T790M).
T4 construct: detects endogenous levels of phospho-EGF Receptor (Tyr1068) protein; endogenous in cells; host or cells: PC9-DRH (dacomitinib-resistant derivative of PC9, generated in house)
Put plainly: pEGFR Y1068 ELISA assay, PC9-DRH cells. The note with it: inhibition of phosphorylation of EGFR at Tyr1068; PC9-DRH cells (dacomitinib resistant); 2 hr compound incubation.
Protocol: as §1, §2

For assay [5], the target named is T5, EGFR L858R (NCI-H3255) (Homo sapiens, UniProt P00533, L858R).
T5 construct: detects endogenous levels of phospho-EGF Receptor (Tyr1068) protein; host or cells: NCI-H3255
Put plainly: pEGFR Y1068 ELISA assay, NCI-H3255 cells.
Protocol: as §1, §2

The structures appear in SMILES notation. Where a name gives a salt, the structure may show the parent alone. Read-outs that look alike come from different tables or passages of the source.

T1 sequence (P00533 with tags, fused parts or gaps DEL746-750): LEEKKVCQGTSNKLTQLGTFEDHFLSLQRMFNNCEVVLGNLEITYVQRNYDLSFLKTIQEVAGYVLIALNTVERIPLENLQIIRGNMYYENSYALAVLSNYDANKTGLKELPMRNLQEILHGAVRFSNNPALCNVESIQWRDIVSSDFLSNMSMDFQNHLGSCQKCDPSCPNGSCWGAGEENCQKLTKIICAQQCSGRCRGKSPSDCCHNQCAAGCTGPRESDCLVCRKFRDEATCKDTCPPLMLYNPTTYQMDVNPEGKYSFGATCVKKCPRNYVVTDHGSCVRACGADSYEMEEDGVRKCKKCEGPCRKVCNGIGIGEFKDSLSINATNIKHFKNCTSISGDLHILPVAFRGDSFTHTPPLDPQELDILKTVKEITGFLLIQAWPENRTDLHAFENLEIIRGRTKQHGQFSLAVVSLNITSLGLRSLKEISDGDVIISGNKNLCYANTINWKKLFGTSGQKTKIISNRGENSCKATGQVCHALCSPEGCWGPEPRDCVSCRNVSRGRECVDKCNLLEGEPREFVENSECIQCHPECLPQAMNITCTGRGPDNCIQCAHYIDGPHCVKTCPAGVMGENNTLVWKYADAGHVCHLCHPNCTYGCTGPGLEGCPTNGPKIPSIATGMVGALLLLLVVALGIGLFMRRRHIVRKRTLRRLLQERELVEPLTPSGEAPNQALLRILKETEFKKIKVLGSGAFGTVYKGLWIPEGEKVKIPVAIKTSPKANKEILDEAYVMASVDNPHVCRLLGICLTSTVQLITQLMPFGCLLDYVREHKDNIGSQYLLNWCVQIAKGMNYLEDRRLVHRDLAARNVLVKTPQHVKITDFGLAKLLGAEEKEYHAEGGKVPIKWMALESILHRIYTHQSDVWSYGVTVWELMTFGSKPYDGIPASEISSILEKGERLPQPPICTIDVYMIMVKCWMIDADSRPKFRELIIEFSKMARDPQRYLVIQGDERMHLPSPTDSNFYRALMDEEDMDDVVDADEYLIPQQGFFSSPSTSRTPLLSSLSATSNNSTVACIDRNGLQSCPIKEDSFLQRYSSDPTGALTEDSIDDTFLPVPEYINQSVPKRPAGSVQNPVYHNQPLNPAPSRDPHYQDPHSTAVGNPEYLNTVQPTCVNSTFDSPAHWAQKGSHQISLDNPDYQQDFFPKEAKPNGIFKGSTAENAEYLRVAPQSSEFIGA
T2 sequence (P00533 25-1210 T790M/L858R): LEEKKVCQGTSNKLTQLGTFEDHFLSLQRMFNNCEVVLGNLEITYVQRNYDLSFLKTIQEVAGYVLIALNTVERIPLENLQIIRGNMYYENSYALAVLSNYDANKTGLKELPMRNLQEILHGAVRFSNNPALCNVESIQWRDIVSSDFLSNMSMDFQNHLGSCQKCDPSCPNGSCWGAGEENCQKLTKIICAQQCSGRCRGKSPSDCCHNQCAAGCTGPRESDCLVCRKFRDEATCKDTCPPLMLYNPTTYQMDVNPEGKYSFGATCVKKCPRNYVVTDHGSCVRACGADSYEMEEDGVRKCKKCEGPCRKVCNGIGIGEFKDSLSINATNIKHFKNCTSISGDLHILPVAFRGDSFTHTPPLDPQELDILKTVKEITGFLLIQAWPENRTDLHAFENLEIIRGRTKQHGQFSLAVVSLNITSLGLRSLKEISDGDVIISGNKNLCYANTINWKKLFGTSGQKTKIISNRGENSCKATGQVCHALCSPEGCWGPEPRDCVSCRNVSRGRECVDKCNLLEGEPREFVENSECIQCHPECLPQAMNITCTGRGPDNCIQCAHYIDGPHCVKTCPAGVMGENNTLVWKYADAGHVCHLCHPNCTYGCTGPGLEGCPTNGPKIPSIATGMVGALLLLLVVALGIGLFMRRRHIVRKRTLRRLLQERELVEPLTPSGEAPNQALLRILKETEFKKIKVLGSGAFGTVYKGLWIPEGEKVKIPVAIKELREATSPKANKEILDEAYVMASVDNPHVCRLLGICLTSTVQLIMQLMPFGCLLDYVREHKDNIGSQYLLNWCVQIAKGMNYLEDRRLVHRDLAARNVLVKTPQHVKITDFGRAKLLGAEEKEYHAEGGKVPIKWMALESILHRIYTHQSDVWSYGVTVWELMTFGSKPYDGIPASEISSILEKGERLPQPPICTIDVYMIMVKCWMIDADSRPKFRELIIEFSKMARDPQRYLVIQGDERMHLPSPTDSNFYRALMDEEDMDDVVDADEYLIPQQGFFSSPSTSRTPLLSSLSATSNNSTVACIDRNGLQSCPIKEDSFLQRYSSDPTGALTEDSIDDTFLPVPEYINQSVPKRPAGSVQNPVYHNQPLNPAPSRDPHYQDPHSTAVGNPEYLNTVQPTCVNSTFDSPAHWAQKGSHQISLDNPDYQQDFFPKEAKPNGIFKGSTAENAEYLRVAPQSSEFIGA
T4 sequence (P00533 with tags, fused parts or gaps DEL746-750/T790M): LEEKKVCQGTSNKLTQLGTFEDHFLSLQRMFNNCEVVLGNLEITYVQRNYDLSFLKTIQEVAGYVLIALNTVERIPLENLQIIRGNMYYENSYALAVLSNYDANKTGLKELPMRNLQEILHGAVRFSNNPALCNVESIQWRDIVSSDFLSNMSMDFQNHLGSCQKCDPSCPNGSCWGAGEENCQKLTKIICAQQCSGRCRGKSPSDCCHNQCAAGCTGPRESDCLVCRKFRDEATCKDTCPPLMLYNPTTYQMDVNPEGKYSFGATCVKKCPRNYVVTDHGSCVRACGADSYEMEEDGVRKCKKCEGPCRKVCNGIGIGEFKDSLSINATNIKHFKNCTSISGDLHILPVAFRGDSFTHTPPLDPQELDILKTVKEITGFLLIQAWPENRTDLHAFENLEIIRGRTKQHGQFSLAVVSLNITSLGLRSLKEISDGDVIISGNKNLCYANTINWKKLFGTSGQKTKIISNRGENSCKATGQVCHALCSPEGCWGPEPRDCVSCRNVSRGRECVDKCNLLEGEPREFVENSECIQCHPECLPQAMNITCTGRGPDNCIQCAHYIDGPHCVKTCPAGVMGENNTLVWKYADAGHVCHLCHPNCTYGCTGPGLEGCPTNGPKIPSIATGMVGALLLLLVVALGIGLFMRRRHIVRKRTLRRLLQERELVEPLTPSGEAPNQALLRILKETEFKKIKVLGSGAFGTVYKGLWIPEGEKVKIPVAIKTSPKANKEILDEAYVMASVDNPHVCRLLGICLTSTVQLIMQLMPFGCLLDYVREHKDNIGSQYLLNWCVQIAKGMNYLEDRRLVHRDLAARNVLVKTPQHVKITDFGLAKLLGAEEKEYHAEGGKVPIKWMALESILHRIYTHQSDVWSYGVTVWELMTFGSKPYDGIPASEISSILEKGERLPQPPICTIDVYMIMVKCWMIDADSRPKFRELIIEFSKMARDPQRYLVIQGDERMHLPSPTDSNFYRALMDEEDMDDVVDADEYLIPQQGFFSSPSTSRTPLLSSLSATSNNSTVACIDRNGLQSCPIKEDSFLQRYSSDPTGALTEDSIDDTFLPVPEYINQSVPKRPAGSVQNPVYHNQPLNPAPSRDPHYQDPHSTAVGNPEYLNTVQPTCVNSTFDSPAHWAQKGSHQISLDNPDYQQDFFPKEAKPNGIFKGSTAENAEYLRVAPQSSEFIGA
T3 sequence (P00533 25-1210): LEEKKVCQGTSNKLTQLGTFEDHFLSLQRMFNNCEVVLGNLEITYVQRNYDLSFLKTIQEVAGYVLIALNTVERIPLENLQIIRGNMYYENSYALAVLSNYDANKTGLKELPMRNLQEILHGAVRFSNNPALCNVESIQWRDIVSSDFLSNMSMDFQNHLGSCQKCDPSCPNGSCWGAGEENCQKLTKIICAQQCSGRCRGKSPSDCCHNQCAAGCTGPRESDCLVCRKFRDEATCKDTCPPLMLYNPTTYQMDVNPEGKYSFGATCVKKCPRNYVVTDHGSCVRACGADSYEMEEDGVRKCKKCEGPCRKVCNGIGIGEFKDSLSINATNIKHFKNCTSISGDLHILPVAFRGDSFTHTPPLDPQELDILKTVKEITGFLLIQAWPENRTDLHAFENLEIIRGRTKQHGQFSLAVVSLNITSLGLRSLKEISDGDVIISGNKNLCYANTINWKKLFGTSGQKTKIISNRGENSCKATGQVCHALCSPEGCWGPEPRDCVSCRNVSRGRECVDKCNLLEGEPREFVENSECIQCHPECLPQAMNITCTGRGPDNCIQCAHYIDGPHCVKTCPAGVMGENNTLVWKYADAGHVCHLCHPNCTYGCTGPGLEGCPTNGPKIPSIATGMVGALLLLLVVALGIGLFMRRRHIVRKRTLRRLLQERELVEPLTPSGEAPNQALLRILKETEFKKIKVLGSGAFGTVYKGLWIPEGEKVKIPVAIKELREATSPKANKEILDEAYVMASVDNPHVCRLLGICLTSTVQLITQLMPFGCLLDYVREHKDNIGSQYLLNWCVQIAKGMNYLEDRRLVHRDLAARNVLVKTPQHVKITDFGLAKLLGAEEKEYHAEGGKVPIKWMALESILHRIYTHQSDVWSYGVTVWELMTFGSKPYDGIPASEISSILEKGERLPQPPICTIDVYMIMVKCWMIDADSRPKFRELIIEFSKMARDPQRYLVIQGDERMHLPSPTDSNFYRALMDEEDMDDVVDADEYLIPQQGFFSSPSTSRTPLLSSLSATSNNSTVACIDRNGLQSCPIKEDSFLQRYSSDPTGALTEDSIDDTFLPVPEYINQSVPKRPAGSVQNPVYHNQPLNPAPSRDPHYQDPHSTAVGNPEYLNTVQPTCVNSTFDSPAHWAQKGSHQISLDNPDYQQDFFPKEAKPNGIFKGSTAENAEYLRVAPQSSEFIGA

One may read the IC50 as the concentration that inhibits the measured activity by half. Lower therefore signals higher potency. As for `C=CC(=O)N[C@@H]1CN(c2nc(Nc3cn(C4CCN(C)C4)nc3C)c3ncn(C(C)C)c3n2)C[C@H]1F` (stereo partly drawn) [Example 65, N-((3R,4R)-4-fluoro-1-(9-isopropyl-6-((3-methyl-1-(1-methylpyrrolidin-3-yl)-1H -pyrazol-4-yl)amino)-9H-purin-2-yl)pyrrolidin-3-yl)acrylamide], the 50% inhibitory concentration (IC50) turned out to be 11 nM in assay [1], 14 nM in assay [2], 1260 nM in assay [3] and 9 nM in assay [4].
In the case of `C=CC(=O)N[C@@H]1CN(c2nc(Nc3cn(C4CCN(C)C4)nc3OC)c3ncn(CC)c3n2)C[C@H]1F` (stereo partly drawn) [Example 75, N-((3R,4R)-1-(9-ethyl-6-((3-methoxy-1-(1-methylpyrrolidin-3-yl)-1H-pyrazol-4-yl)amino)-9H-purin-2-yl)-4-fluoropyrrolidin-3-yl)acrylamide], the IC50 in assay [2] is 11 nM; in assay [3] it was 64 nM; in assay [4], 2 nM; in assay [5], 1 nM.
For the compound `C=CC(=O)N[C@H]1CCN(c2nc(Nc3cnn(C4CCN(C)C4)c3)c3ncn(C(C)C)c3n2)C1` (stereo partly drawn) [Example 45, N-((3S)-1-(9-isopropyl-6-((1-(1-methylpyrrolidin-3-yl)-1H-pyrazol-4-yl)amino)-9H -purin-2-yl)pyrrolidin-3-yl)acrylamide], the IC50 in assay [1] worked out at 7 nM; in assay [2] it was 26 nM; in assay [3] it was 1910 nM; in assay [4], 3 nM.
In the case of `C=CC(=O)N[C@H]1CCN(c2nc(Nc3ccc(N4CCN(C)CC4)cc3)c3ncn(CCO)c3n2)C1` [Example 46, (S)-N-(1-(9-(2-hydroxyethyl)-6-((4-(4-methylpiperazin-1-yl)phenyl)amino)-9H -purin-2-yl)pyrrolidin-3-yl)acrylamide], the IC50 was 31 nM in assay [1]; 387 nM in assay [2]; 4190 nM in assay [3]; 7 nM in assay [5] (inhibition of phosphorylation of EGFR at Tyr1068, NCI-H3255 NSCLC cells, 2 hr compound incubation).
On to `C=CC(=O)N[C@@H]1CN(c2nc(Nc3ccc(N4CCN(C)CC4)cc3)c3ncn(C(C)C)c3n2)C[C@H]1OC` [Example 62, N-((3R,4R)-1-(9-isopropyl-6-((4-(4-methylpiperazin-1-yl)phenyl)amino)-9H-purin-2-yl)-4-methoxypyrrolidin-3-yl)acrylamide], for which the IC50 was 3 nM in assay [1], 6 nM in assay [2] and 1 nM in assay [5].
Consider `C=CC(=O)NC1(C)CN(c2nc(Nc3cnn(C4CCN(C)CC4)c3)c3ncn(C(C)C)c3n2)C1` [Example 39, N-(1-(9-isopropyl-6-((1-(1-methylpiperidin-4-yl)-1H-pyrazol-4-yl)amino)-9H-purin-2-yl)-3-methylazetidin-3-yl)acrylamide], for which the IC50 in assay [1] worked out at 20 nM; in assay [2], 66 nM; in assay [3] it was 2850 nM; in assay [4] it was 10 nM.
With `C=CC(=O)N[C@H]1CCN(c2nc(Nc3ccc(N4CCN(CC)CC4)cc3)c3ncn(C(C)C)c3n2)C1` [Example 40, (S)-N-(1-(6-((4-(4-ethylpiperazin-1-yl)phenyl)amino)-9-isopropyl-9H-purin-2-yl)pyrrolidin-3-yl)acrylamide], the IC50 in assay [2] came out at 8 nM; in assay [3] it was 74 nM; in assay [4] it was 5 nM.
For `C=CC(=O)N1C[C@@H](F)[C@H](Nc2nc(Nc3ccc(N4CCN(C)CC4)cc3)c3ncn(C)c3n2)C1` (relative stereo) [Example 20, 1-((trans)-3-fluoro-4-((9-methyl-6-((4-(4-methylpiperazin-1-yl)phenyl)amino)-9H -purin-2-yl)amino)pyrrolidin-1-yl)prop-2-en-1-one] the same measures were 11 nM, 119 nM and 2 nM.
The like results for `C=CC(=O)N[C@H]1CCN(c2nc(Nc3ccc(N4CCN(C)CC4)cc3)c3ncn(C)c3n2)C1` [Example 38, (S)-N-(1-(9-methyl-6-((4-(4-methylpiperazin-1-yl)phenyl)amino)-9H-purin-2-yl)pyrrolidin-3-yl)acrylamide] were, in that order, 15 nM, 255 nM and 6 nM.
For `C=CC(=O)NC1(C)CN(c2nc(Nc3cnn(C4CCN(C)C4)c3)c3ncn(C(C)C)c3n2)C1` (stereo not shown) [Example 44, N-(1-(9-isopropyl-6-((1-(1-methylpyrrolidin-3-yl)-1H-pyrazol-4-yl)amino)-9H-purin-2-yl)-3-methylazetidin-3-yl)acrylamide] the same measures were 24 nM, 1150 nM and 7 nM.
`C=CC(=O)N[C@@H]1CN(c2nc(Nc3cnn(C)c3)c3ncn(C(C)C)c3n2)C[C@H]1OC` [Example 63, N-((3R,4R)-1-(9-isopropyl-6-((1-methyl-1H-pyrazol-4-yl)amino)-9H-purin-2-yl)-4-methoxypyrrolidin-3-yl)acrylamide]: the IC50 in assay [1] was found to be 14 nM; in assay [2], 32 nM; in assay [3] it was 551 nM; in assay [4] it was 5 nM.
Turning to `C=CC(=O)NC1(C)CN(c2nc(Nc3ccc(N4CCN(C)CC4)cc3)c3ncn(C(C)C)c3n2)C1` [Example 12, N-(1-(9-isopropyl-6-((4-(4-methylpiperazin-1-yl)phenyl)amino)-9H-purin-2-yl)-3-methylazetidin-3-yl)acrylamide], the IC50 in assay [2] stood at 6 nM; in assay [3] it was 140 nM; in assay [4], 10 nM.
For `C=CC(=O)N1C[C@@H]2CN(c3nc(Nc4cnn(C)c4C)c4ncn(C(C)C)c4n3)C[C@@H]2C1` [Example 17, 1-((cis)-5-(6-((1,5-dimethyl-1H-pyrazol-4-yl)amino)-9-isopropyl-9H-purin-2-yl)hexahydropyrrolo[3,4-c]pyrrol-2(1H)-yl)prop-2-en-1-one] the same measures were 468 nM, ≥ 10000 nM and 2500 nM.
The like results for `C=CC(=O)Nc1cccc(Oc2nc(Nc3cnn(C)c3)c3ncn(C(C)C)c3n2)c1` [Example 3, N-(3-((9-isopropyl-6-((1-methyl-1H-pyrazol-4-yl)amino)-9H-purin-2-yl)oxy)phenyl)acrylamide trifluoroacetate] were, in that order, 20 nM, 162 nM and 8 nM.
The like results for `C=CC(=O)N1C[C@@H]2CN(c3nc(Nc4ccc(N5CCN(C)CC5)cc4)c4ncn(C)c4n3)C[C@@H]2C1` [Example 33, 1-((cis)-5-(9-methyl-6-((4-(4-methylpiperazin-1-yl)phenyl)amino)-9H-purin-2-yl)hexahydropyrrolo[3,4-c]pyrrol-2(1H)-yl)prop-2-en-1-one] were, in that order, 18 nM, 324 nM and 4 nM.
For the compound `C=CC(=O)N[C@@H]1CN(c2nc(Nc3cn(C4CCN(C)C4)nc3C)c3ncn(CC)c3n2)C[C@H]1F` (stereo partly drawn) [Example 80, N-((3R,4R)-1-(9-ethyl-6-((3-methyl-1-(1-methylpyrrolidin-3-yl)-1H-pyrazol-4-yl)amino)-9H-purin-2-yl)-4-fluoropyrrolidin-3-yl)acrylamide], the IC50 worked out at 22 nM in assay [2], 425 nM in assay [3] and 10 nM in assay [4].
As for `C=CC(=O)N[C@@H]1CN(c2nc(Nc3cn(C4CN(C)C4)nc3OC)c3ncn(C)c3n2)C[C@H]1F` [Example 5, N-((3R,4R)-4-fluoro-1-(6-((3-methoxy-1-(1-methylazetidin-3-yl)-1H-pyrazol-4-yl)amino)-9-methyl-9H-purin-2-yl)pyrrolidin-3-yl)acrylamide], the IC50 in assay [2] amounted to 17 nM; in assay [3], 546 nM; in assay [4], 8 nM.
For `C=CC(=O)N[C@@H]1CN(c2nc(Nc3cnn(C)c3)c3ncn(C(C)C)c3n2)CC1(F)F` [Example 74, (R)—N-(4,4-difluoro-1-(9-isopropyl-6-((1-methyl-1H-pyrazol-4-yl)amino)-9H-purin-2-yl)pyrrolidin-3-yl)acrylamide] the same measures were 5 nM, 49 nM and 2 nM.
`C=CC(=O)N[C@@H]1CN(c2nc(Nc3cn(C)nc3C)c3ncn(C(C)C)c3n2)C[C@H]1F` [Example 61, N-((3R,4R)-1-(6-((1,3-dimethyl-1H-pyrazol-4-yl)amino)-9-isopropyl-9H-purin-2-yl) -4-fluoropyrrolidin-3-yl)acrylamide]: the IC50 in assay [1] was 6650 nM; in assay [2], 6140 nM; in assay [3] it was ≥ 10000 nM; in assay [4] it was 2130 nM.
With `C=CC(=O)NC1(C)CN(c2nc(Nc3cnn(C)c3)c3ncn(C(C)(C)C)c3n2)C1` [Example 8, N-(1-(9-(tert-butyl)-6-((1-methyl-1H-pyrazol-4-yl)amino)-9H-purin-2-yl)-3-methylazetidin-3-yl)acrylamide], the IC50 in assay [2] turned out to be 97 nM; in assay [3], 4480 nM; in assay [4], 37 nM.
For the compound `C=CC(=O)N1C[C@H]2CN(c3nc(Nc4ccc(N5CCN(C)CC5)cc4)c4ncn(C(C)C)c4n3)C[C@]2(OC)C1` (single isomer, unassigned) [Example 64], the IC50 in assay [2] was 8 nM; in assay [3], 127 nM; in assay [4] it was 8 nM.
